Tests used:
[1] = system: NO production in LPS-stimulated RAW 264.7 macrophages (iNOS); experiment: Griess assay, NO production in LPS-stimulated RAW 264.7 macrophages; assay type: cell-based, murine; settings: 24 h, LPS 1 µg/mL, RAW 264.7, vs LPS only
Text: Inflammation is an important process, in which the immune system is activated, allowing the protection from infections by eliminating pathogens and promoting repairing phenomena. However, in some cases, the inflammation can become chronic, playing a key role in several diseases, such as cancer, diabetes, autoimmune and neurodegenerative disorders. Moreover, chronic inflammation is characterized by a proliferation of different specialized cells, for instance macrophages, fibroblasts, granulocytes and so on. […] NO is produced by nitric oxide synthases (NOS) isoforms, but under different pro-inflammatory stimuli (cytokines or microbial products) it is massively produced by the inducible NOS (iNOS, NOS2; or type II NOS). iNOS can be also overexpressed in several diseases, producing NO in an unregulated manner and contributing to the disease progression. For these reasons, its inhibition represents a good strategy for the treatment of various diseases related to chronic inflammation, amongst them cancer. The anti-inflammatory activity, in terms of NO production inhibition, of the new synthesized chiral complexes was evaluated by the means of a Griess-based assay. Particularly, the NO production was induced in murine macrophages RAW 264.7 stimulated with bacterial lipopolysaccharide (LPS), then they were exposed to the complexes for 24 h and the released NO was quantified (as detailed in the Section 3). […] Therefore, pro-ligands P1 and P2, as R and S pure enantiomers, were tested. The obtained outcomes are visible in Figure 2 (panels A and B, P1 and P2 series, respectively), where it is possible to notice “at glance” that most of the enantiopure compounds were unable to decrease the NO synthesis, induced by LPS treatment in RAW 264.7 macrophages (see pink bars in the graph), with the exception of (R)-AuL1 and (R)-AuL2. Particularly, (R)-AuL1 was able to decrease, dose-dependently, the NO production of about 23 and 35% at 5 and 10 µM, respectively, whereas the S enantiomer was unable to reduce NO, under the same experimental conditions. […] Furthermore, none of the pro-ligands was found able to decrease NO production. […] Finally, viability assays were performed on RAW 264.7 macrophages, recovered after the Griess test.
Anti-inflammatory activity was tested adopting the Griess assay on RAW 264.7 murine macrophages, by measuring NO production, as reported by. Specifically, RAW 264.7 cells were plated on 48 multi-wells and treated with the tested molecules at the indicated concentrations; lipopolysaccharide (LPS, Sigma Aldrich, Milan, Italy), at a final concentration of 1 µg/mL, was used to induce inflammation and stimulate NO production. After 24 h, the cell medium and Griess reagent were mixed at a 1:1 ratio and left under agitation for 30 min, at room temperature. Then, absorbance was measured at 540 nm, using a multiplate reader. The absorbance obtained allowed to assess the percentage of NO production compared with the positive control, in which the cells have been treated with LPS.
Figure 2 Panel (A), L1 series and panel (B), L2 series. Anti-inflammatory activity (pink bars): NO production was induced in murine macrophages RAW 264.7 treated with LPS (1 µg/mL), in presence or not of the enantiopure complexes and pro-ligands at the indicated concentrations (µM), for 24 h. Indomethacin (Ind) was used as the reference molecule. Data were plotted as % NO inhibition with respect to LPS-only treatment. […]

MCF-7 cells = experiment: MTT assay, anticancer activity, MCF-7; assay type: cell-based, human; settings: 72 h, mean ± SD of three experiments
Method: (§1) All cell lines used for the reported studies were purchased from the American Type Culture Collection (ATCC, Manassas, VA, USA). Human breast cancer cells MCF-7 and MDA-MB-231 were maintained in Dulbecco’s Modified Eagle Medium/Nutrient Mixture F12 Ham (DMEM/F12) supplemented with 5% fetal bovine serum (FBS), 1% L-glutamine and 100 units/mL of penicillin/streptomycin. Human mammary epithelial cells MCF-10A were cultured in DMEM/F12 medium, supplemented with 5% horse serum (HS), 100 units/mL of penicillin/streptomycin, […], 0.02 µg/mL human epidermal growth factor (EGF), 10 µg/mL insulin and […] [34]. The murine macrophages RAW 264.7 were grown in Dulbecco’s Modified Eagle’s Medium (DMEM) high glucose (4.5 g/L), added with 10% fetal bovine serum (FBS), 1% L-glutamine and 100 units/mL of penicillin/streptomycin. Cells were maintained at 37 °C, in a humidified atmosphere containing 5% CO2.
(§2) Cell viability was determined using the 3-(4,5-dimethylthiazol-2-y1)-2,5-diphenyltetrazolium bromide assay (MTT, Sigma-Aldrich, Milan, Italy), as in [35]. Cells were treated for 72 h (anticancer activity) or 24 h (anti-inflammatory activity) at different concentrations and the IC50 values were obtained using GraphPad Prism 9 software (GraphPad Software, La Jolla, CA, USA).

MDA-MB-231 cells = experiment: MTT assay, anticancer activity, MDA-MB-231; assay type: cell-based, human; settings: 72 h, mean ± SD of three experiments
Method: as §1, §2

MCF-10A cells = experiment: MTT assay, cytotoxicity on normal mammary epithelial cells MCF-10A; assay type: cell-based, human; settings: 72 h
Method: as §1, §2

[2] = system: Escherichia coli (ATCC 25922); experiment: MIC and MBC by broth dilution, E. coli; assay type: cell-based; settings: broth dilution, overnight 37 °C
Text: (§3) The bacterial strains used for MIC and MBC value determinations expressed as µg/mL by the broth dilution method, according to CLSI guidelines, were the following: Gram-negative: Escherichia coli (ATCC® 25922TM); Gram-positive: Staphylococcus aureus (ATCC® 23235TM). The MIC represents the lowest concentration of compound able to inhibit the visible microbial growth, expressed in μg/mL, whereas the MBC is the lowest concentration of a given compound that can completely kill the bacteria. Bacteria were grown overnight in LB medium (2%), diluted at a density of […] colony forming units (CFUs/mL), plated in the 96-well microplates to obtain a total inoculum load of ca. 10^5 cells/well and then treated with increasing concentrations of the tested complexes (1, 5, 10, 20, 50, 100, 200 μg/mL). Successively, after incubation at 37 °C overnight, the bacterial growth was monitored at a wavelength of 600 nm using a Multiskan spectrophotometer (Multiskan Ex Microplate model; Thermo Scientific, Nyon, Switzerland). MIC or MBC values were obtained by comparing cell density with a positive control (bacterial cells grown in LB medium were added with only the vehicle, DMSO). The results were representative of three independent experiments performed in triplicate and ampicillin (Sigma Aldrich A9393) was used as the control for strain sensitivity.

[3] = system: Staphylococcus aureus (ATCC 23235); experiment: MIC and MBC by broth dilution, S. aureus; assay type: cell-based; settings: broth dilution, overnight 37 °C
Text: as §3

## CN1C(Cl)=C(Cl)N(C[C@H](O)c2ccccc2)[CH]1[Au-][Cl] (stereo partly drawn) [(R)-AuL2, (4,5-dichloro-1-((R)-2-hydroxy-2-phenylethyl)-3-methyl-2,3-dihydro-1H-imidazol-2-yl)gold(I) chloride]
[1]; 1 µM
  decrease of NO production: about 10%
[1]; 5 µM
  decrease of NO production: ~50%
MCF-7 cells
  IC50: 2.2 ± 0.2 µM
MDA-MB-231 cells
  IC50: 1.2 ± 0.2 µM
MCF-10A cells
  cytotoxicity toward normal MCF-10A cells (in words): did not impact
MCF-10A cells; normal cells, mean ± SD of three experiments
  IC50: 38 ± 2.2 µM
[2]
  M.B.C. E. coli: > 150 µg/mL
  M.I.C. E. coli: 75 µg/mL
[3]
  M.B.C. S. aureus: > 100 µg/mL
  M.I.C. S. aureus: 75 µg/mL
